In ChEMBL document CHEMBL3091419, “Cytidine derivatives as IspF inhibitors of Burkolderia pseudomallei” (Bioorg Med Chem Lett, 2013):
The source made the active and inactive calls. No cut-off for these calls is given here.

How the values were obtained:
[1] = biological target: T1, 2-C-methyl-D-erythritol 2,4-cyclodiphosphate synthase (Burkholderia pseudomallei (strain K96243), UniProt Q63T71); assay: Binding affinity to Burkolderia pseudomallei IspF by surface plasmon resonance method
T1 sequence (Q63T71 whole entry): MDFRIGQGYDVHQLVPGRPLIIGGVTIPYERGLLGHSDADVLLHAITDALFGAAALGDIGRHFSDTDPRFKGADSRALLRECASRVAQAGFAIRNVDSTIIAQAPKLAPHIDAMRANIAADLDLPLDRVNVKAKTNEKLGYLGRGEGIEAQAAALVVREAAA

Plasmodium falciparum [2] = assay: Antimicrobial activity against Plasmodium falciparum C235 at 40 uM; type: functional, organism-based
Plasmodium falciparum [3] = assay: Antimicrobial activity against Plasmodium falciparum W2 at 40 uM; type: functional, organism-based
[4] = tested on: Burkholderia thailandensis; assay: Antimicrobial activity against Burkholderia thailandensis at 1 mM; type: functional
Plasmodium falciparum [5] = assay: Antimicrobial activity against Plasmodium falciparum D6 at 40 uM; type: functional, organism-based

OCc1cn2ccsc2n1
Kd [1]: 135 µM

Nc1ccn([C@@H]2O[C@H](CNC(=O)c3ccnc4nc[nH]c34)[C@@H](O)[C@H]2O)c(=O)n1
Activity (Plasmodium falciparum [2]): inactive | Activity (Plasmodium falciparum [3]): inactive | Activity [4]: inactive | Activity (Plasmodium falciparum [5]): inactive | Kd [1]: 90 µM

Nc1ccn([C@@H]2O[C@H](CNC(=O)c3cscn3)[C@@H](O)[C@H]2O)c(=O)n1
Activity (Plasmodium falciparum [2]): inactive | Activity (Plasmodium falciparum [3]): inactive | Activity [4]: inactive | Activity (Plasmodium falciparum [5]): inactive | Kd [1]: 200 µM

Nc1ccn([C@@H]2O[C@H](CNC(=O)c3ccncc3)[C@@H](O)[C@H]2O)c(=O)n1
Activity (Plasmodium falciparum [2]): inactive | Activity (Plasmodium falciparum [3]): inactive | Activity [4]: inactive | Activity (Plasmodium falciparum [5]): inactive | Kd [1]: 180 µM

Nc1ccn([C@@H]2O[C@H](CNC(=O)Cc3cn4ccsc4n3)[C@@H](O)[C@H]2O)c(=O)n1
Activity (Plasmodium falciparum [2]): inactive | Activity (Plasmodium falciparum [3]): inactive | Activity [4]: inactive | Activity (Plasmodium falciparum [5]): inactive | Kd [1]: 148 µM

Oc1ccc(-n2ccnc2)cc1
Kd [1]: > 500 µM

Nc1ccn([C@@H]2O[C@H](CNC(=O)c3cn4ccsc4n3)[C@@H](O)[C@H]2O)c(=O)n1
Activity (Plasmodium falciparum [2]): inactive | Activity (Plasmodium falciparum [3]): inactive | Activity [4]: inactive | Activity (Plasmodium falciparum [5]): inactive | Kd [1]: 70 µM
